# According to US9079843B2, “23-yne-vitamin D3 derivative” (TEIJIN PHARMA LIMITED, priority 2010, dated 2015):
# Assays:
# [1] = tested on: osteoporosis model (oophorectomy) rats; test: Bone mineral density-enhancing effect in osteoporosis model (oophorectomy) rats; format: in vivo, rat; conditions: OVX rats, 5 times a week for 4 weeks, fourth and fifth lumbar vertebrae
# Description: (§1) After 24 hours from the final administration, blood was drawn under ether anesthesia and the rats were put down. Under anesthesia, bone mineral density of the fourth and fifth lumbar vertebrae was measured by using a dual-energy X-ray bone mineral analyzer (QDR-2000; Hologic, Inc.). For comparison, a sham surgery (sham) group (abdominal operation is performed but the ovary is not removed; the test compounds are not administered) and an oophorectomy (OVX) group (subjected to oophorectomy but the test compounds are not administered) were also subjected to measurement of the bone mineral density of lumbar vertebrae at the time of dissection. Further, measurement of calcium concentration in the serum of each group was also performed.
# [2] = Serum calcium concentration in osteoporosis model (oophorectomy) rats; conditions: OVX rats; for Serum calcium value: 5 times a week for 4 weeks, 24 hours after final administration
# Description: as §1
# human VDR = target: T1, human VDR (Homo sapiens, UniProt P11473); test: VDR transcriptional activity in human osteoblast (HOS cells), osteocalcin promoter luciferase reporter; format: cell-based; conditions: 24 hours incubation
# T1 construct: expressed in transfected cells; host or cells: HOS cells (human osteoblast, ATCC)
# T1 sequence (P11473 1-427): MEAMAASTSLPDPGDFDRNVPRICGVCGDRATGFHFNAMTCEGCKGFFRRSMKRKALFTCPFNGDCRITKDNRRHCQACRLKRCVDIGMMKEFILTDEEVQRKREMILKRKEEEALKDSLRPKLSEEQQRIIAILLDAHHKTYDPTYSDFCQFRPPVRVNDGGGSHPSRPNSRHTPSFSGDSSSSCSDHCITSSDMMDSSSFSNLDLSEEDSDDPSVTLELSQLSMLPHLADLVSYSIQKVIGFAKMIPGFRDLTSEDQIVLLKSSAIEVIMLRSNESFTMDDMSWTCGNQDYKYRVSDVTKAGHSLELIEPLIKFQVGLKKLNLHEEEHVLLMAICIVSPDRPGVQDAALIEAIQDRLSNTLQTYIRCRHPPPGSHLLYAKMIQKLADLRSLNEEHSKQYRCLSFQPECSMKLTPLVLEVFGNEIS
# T1 sequence (P19793 1-462 partner): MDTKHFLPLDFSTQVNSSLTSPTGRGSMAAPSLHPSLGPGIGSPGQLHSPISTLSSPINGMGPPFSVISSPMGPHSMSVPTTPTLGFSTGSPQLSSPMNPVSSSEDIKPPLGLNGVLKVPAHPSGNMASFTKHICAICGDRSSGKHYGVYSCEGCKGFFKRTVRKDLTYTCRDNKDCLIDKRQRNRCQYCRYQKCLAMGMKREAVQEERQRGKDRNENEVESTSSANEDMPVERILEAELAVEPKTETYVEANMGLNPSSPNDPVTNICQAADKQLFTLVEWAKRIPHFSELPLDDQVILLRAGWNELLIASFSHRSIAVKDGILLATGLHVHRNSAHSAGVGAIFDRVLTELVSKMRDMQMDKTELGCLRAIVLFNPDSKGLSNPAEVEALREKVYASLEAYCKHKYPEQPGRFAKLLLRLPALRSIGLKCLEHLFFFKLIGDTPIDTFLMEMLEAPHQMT
# From the text: (1) A reporter vector was constructed by inserting the sequence of the promoter region of human ostocalcin gene into the upstream of luciferase gene using a pGL3 vector (Promega Corporation), wherein the promoter region of the human ostocalcin gene was cloned using cDNA acquired from HOS cells (purchased from ATCC) by a method known in the literature (Ozono et al., The Journal of Biological Chemistry, 265, 21881-21888 (1990)). The expression vector was constructed by inserting a DNA sequence, which encodes human VDR and human RXR, into a pcDNA3 vector (Invitrogen Corporation). The HOS cells were incubated in a DMEM medium containing 10% FBS under conditions of 37° C. and 5% CO2, and subcultured every 2 or 3 days.
# (2) The cells which had been subcultured were recovered by centrifugation and were suspended in serum- and phenol red-free DMEM medium in a density of 4×10^5 cells/mL. This was seeded on a 96-well plate in an amount of 0.1 mL/well. To this system, various vectors described in (1) were added in an amount of 0.05 mL per well using Lipofectamine 2000 (Invitrogen Corporation). After incubation at 37° C. for 3 hours, 2 μl each of ethanol solutions of the test compounds of various concentrations or ethanol as a control was added to each well. After incubation at 37° C. for 24 hours, the medium was removed, the cells were washed once with PBS(−), and thereafter luciferase activity was measured by using a luminometer (Berthold Technologies GmbH & Co. KG) using Dual-Glo Luciferase Assay Kit (Promega Corporation).
# VDR = target: T2, VDR (Homo sapiens, UniProt P11473); test: Evaluation of VDR affinity (PolarScreen Vitamin D Receptor Competitor Assay, fluorescence polarization)
# T2 sequence (P11473 1-427): T1 sequence (P11473 1-427)
# Description: VDR was evaluated by using a commercial measurement and evaluation kit, for example, “PolarScreen Vitamin D Receptor Competitor Assay, Red, Cat. No. PV4569” marketed by Invitrogen Corporation, according to the following procedure.
# Solutions of the compounds were added to two wells each of a 384-well black plate in 10 μl aliquots. To each well, VDR/Fluoromone VDR Complex included in the kit was added in 10 μl aliquots and allowed to react at room temperature for 2 hours.
compound,measurement,setting,value
"C=C1/C(=C\C=C2/CCC[C@]3(C)[C@@H]([C@H](C)CC#CC(C)(C)O)CC[C@@H]23)C[C@@H](O)[C@H](OCCC(=O)OCOC(=O)C(C)(C)C)[C@@H]1O [Compound C-7, (5Z,7E)-(1R,2S,3R,20R)-2-((t-butylcarbonyloxy)methoxycarbonylethoxy)-23-yne-9,10-seco-5,7,10(19)-cholestatriene-1,3,25-triol]",Bone mineral density,[1]; dose 6 ng/kg,0.2322 ± 0.0092 g/mL
same,Bone mineral density,[1]; dose 13 ng/kg,0.2548 ± 0.0143 g/mL
same,Serum calcium value,[2]; dose 6 ng/kg,9.83 ± 0.22 mg/dL
same,Serum calcium value,[2]; dose 13 ng/kg,10.07 ± 0.22 mg/dL
"C=C1/C(=C\C=C2/CCC[C@]3(C)[C@@H]([C@H](C)CCCC(C)(C)O)CC[C@@H]23)C[C@@H](O)[C@H](OCCCO)[C@@H]1O [2α-(3-hydroxypropyl)oxy-1α,25-dihydroxyvitamin D3, reference compound]",Bone mineral density,[1]; dose 10 ng/kg,0.2269 ± 0.0161 g/mL
same,Bone mineral density,[1]; dose 25 ng/kg,0.2473 ± 0.0157 g/mL
same,Serum calcium value,[2]; dose 10 ng/kg,10.30 ± 0.37 mg/dL
same,increase in the serum calcium value,[2]; dose 25 ng/kg necessary for bone mineral density equal to or greater than sham group,≥ 1 mg/dL
same,Serum calcium value,[2]; dose 25 ng/kg,11.20 ± 0.20 mg/dL
"C=C1/C(=C\C=C2/CCC[C@]3(C)[C@@H]([C@H](C)CC#CC(C)(C)O)CC[C@@H]23)C[C@@H](O)[C@H](OCCC(=O)OC(C)C)[C@@H]1O [Compound C-5, (5Z,7E)-(1R,2S,3R,20R)-2-(2-(1-methyl)ethoxycarbonylethoxy)-23-yne-9,10-seco-5,7,10(19)-cholestatriene-1,3,25-triol]",Bone mineral density,[1]; dose 17 ng/kg,0.2316 ± 0.0134 g/mL
same,Bone mineral density,[1]; dose 50 ng/kg,0.2354 ± 0.0126 g/mL
same,Serum calcium value,[2]; dose 17 ng/kg,9.60 ± 0.15 mg/dL
same,Serum calcium value,[2]; dose 50 ng/kg,10.10 ± 0.21 mg/dL
"C=C1C(=CC=C2CCCC3(C)C2CCC3C(C)CC#CC(O)(CC)CC)CC(O)C(OCCC(=O)O)C1O [Compound F-1, (5Z,7E)-(1R,2S,3R,20R)-2-(2-carboxyethoxy)-26,27-dimethyl-23-yne-9,10-seco-5,7,10(19)-cholestatriene-1,3,25-triol]",Bone mineral density,[1]; dose 6 ng/kg,0.2366 ± 0.0139 g/mL
same,EC50,human VDR,≤ 0.02 nM
"C=C1C(=CC=C2CCCC3(C)C2CCC3C(C)CC#CC(C)(C)O)CC(O)C(OCCC(=O)O)C1O [Compound C-1, (5Z,7E)-(1R,2S,3R,20R)-2-(2-carboxyethoxy)-23-yne-9,10-seco-5,7,10(19)-cholestatriene-1,3,25-triol]",Bone mineral density,[1]; dose 4 ng/kg,0.2223 ± 0.0118 g/mL
same,Bone mineral density,[1]; dose 10 ng/kg,0.2400 ± 0.0065 g/mL
same,EC50,human VDR,≤ 0.2 nM
same,VDR affinity (in words),VDR,very strong VDR affinity
"C=C1/C(=C\C=C2/CCC[C@@]3(C)C2CC[C@@H]3[C@H](C)CC#CC(C)(C)O)C[C@@H](O)[C@H](OCC2(C(=O)O)CC2)[C@@H]1O (stereo partly drawn) [Compound E-1, (5Z,7E)-(1R,2S,3R,20R)-2-((2-carboxy-2,2-ethano)ethoxy)-23-yne-9,10-seco-5,7,10 (19)-cholestatriene-1,3,25-triol]",EC50,human VDR,≤ 0.2 nM
C=C1C(=CC=C2CCCC3(C)C2CCC3C(C)CC#CC(C)(C)O)CC(O)C(CCCC(=O)O)C1O [Compound D-1],Bone mineral density,[1]; dose 6 ng/kg,0.2211 ± 0.0175 g/mL
same,Bone mineral density,[1]; dose 13 ng/kg,0.2360 ± 0.0143 g/mL
same,EC50,human VDR,≤ 0.02 nM
same,VDR affinity (in words),VDR,very strong VDR affinity
"C=C1C(=CC=C2CCCC3(C)C2CCC3C(C)CC#CC(C)(C)O)CC(O)C(CC(C)C(=O)OC(C)(C)C)C1O [Compound D-6, (5Z,7E)-(1S,2S,3R,20R)-2-(2-(1,1-dimethyl)ethoxycarbonylpropyl)-23-yne-9,10-seco-5,7,10(19)-cholestatriene-1,3,25-triol]",Bone mineral density,[1]; dose 50 ng/kg,0.2365 ± 0.0204 g/mL
same,Serum calcium value,[2]; dose 50 ng/kg,9.76 ± 0.29 mg/dL
"C=C1C(=CC=C2CCCC3(C)C2CCC3C(C)CC#CC2(O)CCCC2)CC(O)C(OCCC(=O)O)C1O [Compound F-2, (5Z,7E)-(1R,2S,3R,20R)-2-(2-carboxyethoxy)-26,27-nor-25-cyclopentyl-23-yne-9,10-seco-5,7,10(19)-cholestatriene-1,3,25-triol]",EC50,human VDR,≤ 0.02 nM
"C=C1C(=CC=C2CCCC3(C)C2CCC3C(C)CC#CC(C)(C)O)CC(O)C(OCCC(=O)OC)C1O [Compound C-2, (5Z,7E)-(1R,2S,3R,20R)-2-(2-methoxycarbonylethoxy)-23-yne-9,10-seco-5,7,10(19)-cholestatriene-1,3,25-triol]",Bone mineral density,[1]; dose 6 ng/kg,0.2196 ± 0.0177 g/mL
same,Bone mineral density,[1]; dose 13 ng/kg,0.2308 ± 0.0081 g/mL
same,EC50,human VDR,≤ 0.2 nM
